Key:
[1] = Pharmacokinetic study, oral administration to rats; format: in vivo; conditions: rat, blood, equimolecular doses (Resveratrol 2 mg/Kg, complex 9.13 mg/Kg)
Description: The product concentration in blood was determined at prefixed time intervals.

[2] = Permeability through rabbit colon, Ussing Chamber method; format: in vitro ADME
Text: This device consists of: 6 cells divided into two parts by a septum, which accommodate the tissue obtained from the rabbit colon; an oxygenation system; a system for the circulation of a specific buffer solution maintained at constant temperature by heating; and finally electrodes for measuring the compound concentration variations, wherefrom the apparent permeability coefficient (Papp), expressed in cm/sec, is obtained.

Structure (SMILES): Oc1ccc(/C=C/c2cc(O)cc(O)c2)cc1 [trans-Resveratrol]
- concentration at 15 min ([1]; 15 min): 18 ng/mL
- concentration at 30 min ([1]; 30 min): 34 ng/mL
- concentration at 60 min ([1]; 60 min): 43 ng/mL
- concentration at 120 min ([1]; 120 min): 11 ng/mL
- concentration at 240 min ([1]; 240 min): 0 ng/mL
- Papp [2]: 0.2 ×10⁻⁶ cm/s
